Experimental data: article PMC2806030, “Inhibition of mammalian S6 kinase by resveratrol suppresses autophagy” (Aging (Albany NY), 2009)

Legend:
Assay in all cases: biochemical
Design in all cases: Upstate KinaseProfiler in vitro kinase activity assay, per cent of DMSO control
Conditions in all cases: read-out: Activity (% of Control)
ALK4(h) = target: T1, ALK4(h) (Homo sapiens, UniProt P36896)
T1 construct: gene ACVR1B
Protocol: (§1) Kinase profile and kinase assay. A Kinase profile against 100 kinases listed for resveratrol at 20 μM was generated utilizing Upstate's KinaseProfiler™ service. Assay protocols for each kinase are available from Upstate (Lake Placid, NY). In vitro kinase assay was performed as described previously. Briefly, HEK293 cells were transfected with HA-S6K1 wt, HA-S6K1 K100R, or vector as indicated. Cells were treated with 1 μg/ml insulin for 10 minutes prior to harvesting in PBS + 0.5% NP-40 + protease and phosphatase inhibitors. 125 μg of lysate per sample was immunoprecipitated using 0.5 μg/sample of anti-HA High-Affinity (Roche, Basel Switzerland). Beads from immunoprecipitations were washed three times in lysis buffer and once in kinase buffer, and kinase assays were performed with recombinant GST-S6 as substrate (1 μg per assay). In the indicated lanes varying doses of resveratrol or DMSO control were added to the reaction prior to addition of the GST-S6 substrate. All samples were subjected to SDS-PAGE, and 32P incorporation was quantified by using a Bio-Rad (Hercules, CA) Phosphor-Imager and subsequent analysis with ImageJ (NIH).  Figure 4. Resveratrol inhibits S6K1 in vitro. (A) Structural similarity between resveratrol and quercetin, a known kinase inhibitor. (B) Kinase inhibition profile for resveratrol at 20 μM obtained using KinaseProfiler™ (Upstate). Dashed line represents 100% activity as compared to control. Black filled-in bar on the graph indicates S6K1. Complete data set is provided in Supplementary Table 1. Error bars represent s.d.m. (C) Phosphorylation of recombinant GST-tagged S6 by immunoprecipitated HA-S6K1 under increasing concentrations of resveratrol (Res). Autoradiograph depicts S6K1 phosphorylation of GST-S6. (D) Average of three separate kinase assay experiments as performed in (C). Densitometry was performed using NIH ImageJ. Error bars represent s.e.m. […] Therefore, we hypothesized that the effect of resveratrol on autophagy could be related to inhibition of one or more upstream kinases. To test this, we performed an in vitro kinase screen and determined an inhibition profile for resveratrol. […] With the exception of S6K1, these kinases play primary roles in the hematopoietic system, and were thus viewed as unlikely to have been responsible for the effect we were studying. […] On the other hand, S6K1 is known to play a requisite role in the regulation of autophagy in Drosophila, making it a promising candidate for the in vivo target of resveratrol that is responsible for inhibition of autophagy.

Abl(T315I)(h) = target: T2, Abl(T315I)(h) (Homo sapiens, UniProt P00519, T315I)
T2 construct: gene ABL1
Protocol: as §1

CDK2/cyclinA(h) = CDK2/cyclinA(h) (Homo sapiens, UniProt P24941)
Protocol: as §1

CDK7/cyclinH/MAT1(h) = CDK7/cyclinH/MAT1(h) (Homo sapiens, UniProt P50613)
Protocol: as §1

Fgr(h) = Fgr(h) (Homo sapiens, UniProt P09769)
Protocol: as §1

Jak2 = Jak2 (Homo sapiens, UniProt O60674)
Protocol: as §1

LKB1(h) = target: T3, LKB1(h) (Homo sapiens, UniProt Q15831)
T3 construct: gene STK11
Protocol: as §1

MST1(h) = target: T4, MST1(h) (Homo sapiens, UniProt Q13043)
T4 construct: gene STK4
Protocol: as §1

PAK6(h) = PAK6(h) (Homo sapiens, UniProt Q9NQU5)
Protocol: as §1

PDGFRß(h) = target: T5, PDGFRß(h) (Homo sapiens, UniProt P09619)
T5 construct: gene PDGFRB
Protocol: as §1

PKCζ(h) = target: T6, PKCζ(h) (Homo sapiens, UniProt Q05513)
T6 construct: gene PRKCZ
Protocol: as §1

PKD2(h) = target: T7, PKD2(h) (Homo sapiens, UniProt Q9BZL6)
T7 construct: gene PRKD2
Protocol: as §1

Pim-1 = target: T8, Pim-1 (Homo sapiens, UniProt P11309)
T8 construct: gene PIM1
Protocol: as §1

Plk3(h) = Plk3(h) (Homo sapiens, UniProt Q9H4B4)
Protocol: as §1

SIK(h) = target: T9, SIK(h) (Homo sapiens, UniProt P57059)
T9 construct: gene SIK1
Protocol: as §1

ZAP-70(h) = target: T10, ZAP-70(h) (Homo sapiens, UniProt P43403)
T10 construct: gene ZAP70
Protocol: as §1

cSRC(h) = target: T11, cSRC(h) (Homo sapiens, UniProt P12931)
T11 construct: gene SRC
Protocol: as §1

p70S6K(h) = target: T12, p70S6K(h) (Homo sapiens, UniProt P23443)
T12 construct: gene RPS6KB1
Protocol: as §1

CDK7/cyclinH/MAT1(h), sequence (P50613 whole entry): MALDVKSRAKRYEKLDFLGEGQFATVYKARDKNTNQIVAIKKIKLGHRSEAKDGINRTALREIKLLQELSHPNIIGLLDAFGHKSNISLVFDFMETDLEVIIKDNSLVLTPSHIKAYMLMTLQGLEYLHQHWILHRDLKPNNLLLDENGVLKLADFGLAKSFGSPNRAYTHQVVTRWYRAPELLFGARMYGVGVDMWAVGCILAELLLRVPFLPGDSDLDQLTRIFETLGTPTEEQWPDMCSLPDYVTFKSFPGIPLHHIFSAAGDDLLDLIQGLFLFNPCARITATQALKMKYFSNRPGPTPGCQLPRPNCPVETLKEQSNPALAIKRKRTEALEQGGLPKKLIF
CDK7/cyclinH/MAT1(h), sequence (P51946 whole entry partner): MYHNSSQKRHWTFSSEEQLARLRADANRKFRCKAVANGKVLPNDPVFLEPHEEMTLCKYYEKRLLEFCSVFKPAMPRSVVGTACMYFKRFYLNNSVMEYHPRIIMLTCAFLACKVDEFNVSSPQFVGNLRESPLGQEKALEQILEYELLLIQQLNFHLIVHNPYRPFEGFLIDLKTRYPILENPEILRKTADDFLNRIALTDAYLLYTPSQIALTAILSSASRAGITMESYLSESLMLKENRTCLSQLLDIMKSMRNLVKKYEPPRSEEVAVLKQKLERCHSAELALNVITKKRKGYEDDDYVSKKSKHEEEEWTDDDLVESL
CDK7/cyclinH/MAT1(h), sequence (P51948 whole entry partner): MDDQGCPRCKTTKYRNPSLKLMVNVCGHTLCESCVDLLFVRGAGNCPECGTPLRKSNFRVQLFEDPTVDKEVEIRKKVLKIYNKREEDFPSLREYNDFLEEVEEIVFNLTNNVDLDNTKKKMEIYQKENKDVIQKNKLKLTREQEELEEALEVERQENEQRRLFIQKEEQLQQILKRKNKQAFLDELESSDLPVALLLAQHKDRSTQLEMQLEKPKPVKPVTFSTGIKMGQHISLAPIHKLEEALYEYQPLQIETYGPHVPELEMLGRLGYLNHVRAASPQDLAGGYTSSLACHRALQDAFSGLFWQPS
T8 sequence (P11309 whole entry): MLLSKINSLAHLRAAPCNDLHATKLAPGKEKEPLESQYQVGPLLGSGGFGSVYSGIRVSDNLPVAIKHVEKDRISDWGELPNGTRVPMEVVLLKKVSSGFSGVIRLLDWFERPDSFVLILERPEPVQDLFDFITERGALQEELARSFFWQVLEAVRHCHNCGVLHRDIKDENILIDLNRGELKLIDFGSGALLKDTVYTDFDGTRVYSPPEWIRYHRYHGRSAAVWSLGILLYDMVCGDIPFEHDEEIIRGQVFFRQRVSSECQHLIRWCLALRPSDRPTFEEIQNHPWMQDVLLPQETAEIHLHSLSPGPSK
T5 sequence (P09619 whole entry): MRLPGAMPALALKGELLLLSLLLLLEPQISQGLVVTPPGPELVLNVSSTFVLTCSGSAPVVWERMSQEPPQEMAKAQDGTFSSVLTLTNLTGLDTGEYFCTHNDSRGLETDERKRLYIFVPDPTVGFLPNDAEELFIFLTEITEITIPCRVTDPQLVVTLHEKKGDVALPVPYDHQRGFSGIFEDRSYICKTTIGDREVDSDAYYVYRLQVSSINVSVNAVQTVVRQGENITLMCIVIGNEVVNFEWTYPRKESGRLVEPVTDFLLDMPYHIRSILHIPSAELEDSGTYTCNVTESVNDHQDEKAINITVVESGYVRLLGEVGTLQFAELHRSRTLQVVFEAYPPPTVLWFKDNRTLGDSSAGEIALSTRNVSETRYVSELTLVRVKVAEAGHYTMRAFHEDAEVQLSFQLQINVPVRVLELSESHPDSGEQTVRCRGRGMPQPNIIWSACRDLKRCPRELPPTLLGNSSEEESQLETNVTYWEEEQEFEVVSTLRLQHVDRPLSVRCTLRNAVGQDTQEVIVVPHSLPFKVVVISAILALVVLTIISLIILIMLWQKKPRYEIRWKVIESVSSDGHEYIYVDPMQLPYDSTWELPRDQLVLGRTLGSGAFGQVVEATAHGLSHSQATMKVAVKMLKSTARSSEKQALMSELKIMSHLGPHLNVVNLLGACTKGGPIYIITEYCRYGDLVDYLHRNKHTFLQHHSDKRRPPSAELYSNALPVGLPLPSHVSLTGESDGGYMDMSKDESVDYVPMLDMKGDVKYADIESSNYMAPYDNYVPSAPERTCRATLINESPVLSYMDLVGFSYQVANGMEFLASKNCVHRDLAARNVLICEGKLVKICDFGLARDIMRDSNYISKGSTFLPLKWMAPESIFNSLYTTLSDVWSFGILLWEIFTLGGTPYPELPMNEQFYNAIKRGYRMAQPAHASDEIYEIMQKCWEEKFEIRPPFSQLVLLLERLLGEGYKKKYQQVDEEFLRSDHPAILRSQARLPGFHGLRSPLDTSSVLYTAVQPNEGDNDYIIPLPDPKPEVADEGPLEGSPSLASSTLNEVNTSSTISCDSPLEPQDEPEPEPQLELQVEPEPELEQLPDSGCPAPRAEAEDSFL
T3 sequence (Q15831 whole entry): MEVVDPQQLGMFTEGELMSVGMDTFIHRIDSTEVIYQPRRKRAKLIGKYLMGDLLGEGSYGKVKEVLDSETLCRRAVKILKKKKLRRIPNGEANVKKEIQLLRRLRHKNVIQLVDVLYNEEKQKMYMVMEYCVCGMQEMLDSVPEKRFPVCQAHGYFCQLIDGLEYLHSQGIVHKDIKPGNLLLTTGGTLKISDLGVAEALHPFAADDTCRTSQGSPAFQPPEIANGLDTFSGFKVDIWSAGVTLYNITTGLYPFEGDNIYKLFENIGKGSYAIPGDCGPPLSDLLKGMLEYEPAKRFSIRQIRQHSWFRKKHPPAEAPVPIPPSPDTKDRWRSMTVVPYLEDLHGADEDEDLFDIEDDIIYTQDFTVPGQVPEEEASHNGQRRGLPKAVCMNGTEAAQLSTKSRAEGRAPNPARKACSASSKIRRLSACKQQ
T3 sequence (Q7RTN6 whole entry partner): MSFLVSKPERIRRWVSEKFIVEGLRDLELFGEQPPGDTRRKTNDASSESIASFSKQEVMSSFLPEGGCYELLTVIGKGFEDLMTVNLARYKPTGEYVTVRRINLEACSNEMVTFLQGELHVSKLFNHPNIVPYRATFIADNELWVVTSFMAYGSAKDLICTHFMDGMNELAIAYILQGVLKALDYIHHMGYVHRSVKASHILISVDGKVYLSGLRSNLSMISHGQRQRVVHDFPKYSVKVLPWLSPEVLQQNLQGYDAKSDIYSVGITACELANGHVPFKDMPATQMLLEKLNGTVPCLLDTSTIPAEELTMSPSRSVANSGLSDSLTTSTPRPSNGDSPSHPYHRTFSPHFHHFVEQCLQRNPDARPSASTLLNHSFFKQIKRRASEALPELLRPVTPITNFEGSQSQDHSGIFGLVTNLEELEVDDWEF
T3 sequence (Q9Y376 whole entry partner): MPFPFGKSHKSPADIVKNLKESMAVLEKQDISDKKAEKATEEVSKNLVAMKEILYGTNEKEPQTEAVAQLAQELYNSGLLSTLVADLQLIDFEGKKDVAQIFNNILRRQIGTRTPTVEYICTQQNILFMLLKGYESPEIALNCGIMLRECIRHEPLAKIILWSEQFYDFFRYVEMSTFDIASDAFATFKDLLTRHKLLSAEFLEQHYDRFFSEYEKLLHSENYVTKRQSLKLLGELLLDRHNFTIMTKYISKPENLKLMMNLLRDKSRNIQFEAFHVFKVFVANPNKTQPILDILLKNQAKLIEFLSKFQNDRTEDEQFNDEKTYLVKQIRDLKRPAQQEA
T10 sequence (P43403 whole entry): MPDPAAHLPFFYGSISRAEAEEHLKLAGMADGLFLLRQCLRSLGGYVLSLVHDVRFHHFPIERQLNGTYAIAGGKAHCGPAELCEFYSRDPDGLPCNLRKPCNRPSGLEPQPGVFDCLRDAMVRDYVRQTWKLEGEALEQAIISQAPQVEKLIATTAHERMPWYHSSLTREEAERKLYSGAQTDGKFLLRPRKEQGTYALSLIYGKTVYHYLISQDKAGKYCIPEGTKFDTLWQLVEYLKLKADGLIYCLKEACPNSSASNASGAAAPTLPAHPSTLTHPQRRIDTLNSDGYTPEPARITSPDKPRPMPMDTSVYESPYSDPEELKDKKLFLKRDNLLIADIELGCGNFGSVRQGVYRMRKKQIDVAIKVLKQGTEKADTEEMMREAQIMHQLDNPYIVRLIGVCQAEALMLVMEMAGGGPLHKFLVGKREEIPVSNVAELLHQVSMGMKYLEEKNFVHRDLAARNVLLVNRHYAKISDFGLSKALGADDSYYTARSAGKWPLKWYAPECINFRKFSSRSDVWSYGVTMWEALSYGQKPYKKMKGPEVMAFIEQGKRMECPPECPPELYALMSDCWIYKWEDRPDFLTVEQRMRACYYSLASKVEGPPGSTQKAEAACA
T4 sequence (Q13043 whole entry): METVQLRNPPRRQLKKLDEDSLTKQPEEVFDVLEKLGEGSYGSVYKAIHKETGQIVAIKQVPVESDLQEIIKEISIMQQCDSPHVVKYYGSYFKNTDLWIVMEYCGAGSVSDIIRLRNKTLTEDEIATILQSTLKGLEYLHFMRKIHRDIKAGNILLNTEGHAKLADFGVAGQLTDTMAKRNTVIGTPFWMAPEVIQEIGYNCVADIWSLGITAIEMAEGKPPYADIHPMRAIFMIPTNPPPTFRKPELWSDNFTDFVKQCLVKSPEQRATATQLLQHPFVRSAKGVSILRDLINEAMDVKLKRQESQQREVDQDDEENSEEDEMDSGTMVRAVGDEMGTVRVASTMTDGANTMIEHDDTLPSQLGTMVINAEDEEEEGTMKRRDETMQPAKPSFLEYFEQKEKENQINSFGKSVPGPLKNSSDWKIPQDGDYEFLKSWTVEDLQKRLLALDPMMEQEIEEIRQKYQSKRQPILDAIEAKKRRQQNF

`Oc1ccc(/C=C/c2cc(O)cc(O)c2)cc1` [Res, resveratrol] was tested, and the remaining activity at 20 µM (ALK4(h)) was 110 ± 3%, the remaining activity at 20 µM (Abl(T315I)(h)) was 100 ± 2% and the remaining activity at 20 µM (CDK2/cyclinA(h)) was 80 ± 1%. For the same compound, the remaining activity at 20 µM (CDK7/cyclinH/MAT1(h)) was 95 ± 1%, the remaining activity at 20 µM (Fgr(h)) was 78 ± 5% and the remaining activity at 20 µM (Jak2) was 27 ± 5%. The remaining activity at 20 µM (LKB1(h)) was 102 ± 3%, the remaining activity at 20 µM (MST1(h)) was 75 ± 6% and the remaining activity at 20 µM (PAK6(h)) was 103 ± 3%. It also gave a remaining activity at 20 µM (PDGFRß(h)) of 119 ± 2%, a remaining activity at 20 µM (PKCζ(h)) of 89% and a remaining activity at 20 µM (PKD2(h)) of 88 ± 5%. The remaining activity at 20 µM (Pim-1) was 6 ± 2%, the remaining activity at 20 µM (Plk3(h)) was 95 ± 9% and the remaining activity at 20 µM (SIK(h)) was 76 ± 1%. The remaining activity at 20 µM (ZAP-70(h)) was 141 ± 2%, the remaining activity at 20 µM (cSRC(h)) was 61 ± 1% and the remaining activity at 20 µM (p70S6K(h)) was 21 ± 1%.
